Laboratory results published in patent US9062056B2, “Aza-benzimidazolone Chymase inhibitors” (Boehringer Ingelheim International GmbH, priority 2008, dated 2015).

Biological target: T1, Chymase (Homo sapiens, UniProt P23946)
T1 sequence (P23946 22-247): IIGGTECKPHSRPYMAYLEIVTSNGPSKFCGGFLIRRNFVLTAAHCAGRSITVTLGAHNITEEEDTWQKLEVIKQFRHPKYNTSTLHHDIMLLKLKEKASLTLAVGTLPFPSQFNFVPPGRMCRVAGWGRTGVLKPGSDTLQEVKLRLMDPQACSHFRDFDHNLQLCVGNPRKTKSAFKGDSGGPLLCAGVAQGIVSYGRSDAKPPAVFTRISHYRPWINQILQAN
Experiment: In vitro assay for inhibition of Chymase (rhodamine 110 peptide substrate, fluorescence)
Type: biochemical
Conditions: 500 pM chymase, 100 nM substrate, 100 μM TCEP, 1% DMSO, 28° C., 1 hour
Protocol: IN VITRO ASSAY FOR INHIBITION OF CHYMASE
Chymase assays were performed in a total volume of 15 μL in Corning black opaque 384-well microtiter plates with a non-binding surface (Corning, N.Y.). The assay buffer was comprised of 20 mM Tris HCl pH 8.0, 50 mM NaCl, 0.01% CHAPS. The test compounds were serially diluted 3-fold with neat DMSO in a 96-well polypropylene plate from a 10 mM DMSO stock to give the 10 point dose response curve. 3 μL of the resulting DMSO solution were transferred to a 384-well polypropylene plate in duplicate, and 37 μL of assay buffer was added. Chymase was added to the assay plate in 3 uL of assay buffer followed by 2 uL of the appropriate compound dilution using a PlateMate Plus (Matrix Technologies Corp., Hudson, N.H.). The reaction was initiated by the addition of 10 uL rhodamine 110, bis-(succinoyl-L-alanyl-L-alanyl-L-prolyl-L-phenylalanylamide) (American Peptides, Sunnyvale, Calif.) in assay buffer containing 150 μM tris(2-carboxyethyl)phosphine (TCEP, Pierce Chemical, Rockford, Ill.) using a Multidrop (Thermo Electron Corp., Waltham, Mass.). Final assay concentrations were 500 pM chymase, 100 nM substrate, 100 μM TCEP, and 1% DMSO. The plates were incubated at 28° C. and 80% humidity for 1 hour, at which time the fluorescence was read on a Viewlux 1430 Microplate Imager (Perkin Elmer Life Sciences, Boston, Mass.) with 485 nm excitation, 530 nm emission, and a fluorescein dichroic mirror. The percentage of control values were calculated relative to assay blanks containing complete reaction minus chymase and a 100% control containing assay buffer with 1% DMSO in place of compound. IC50 values were obtained by fitting the data using XLFit4 (IDBS Software).

IC50 [nM] | Compound
7.48 | CCC[C@@H](CC(=O)NS(=O)(=O)CC)n1c(=O)n(Cc2cn(C)c3cccc(C)c23)c2cccnc21 [Ethanesulfonic acid {(S)-3-[1-(1,4-dimethyl-1H-indol-3-ylmethyl)-2-oxo-1,2-dihydro-imidazo[4,5-b]pyridin-3-yl]-hexanoyl}-amide]
11.8 | CCC[C@@H](CC(=O)NS(C)(=O)=O)n1c(=O)n(Cc2cn(C)c3cccc(C)c23)c2cccnc21 [N-{(S)-3-[1-(1,4-Dimethyl-1H-indol-3-ylmethyl)-2-oxo-1,2-dihydro-imidazo[4,5-b]pyridin-3-yl]-hexanoyl}-methanesulfonamide]
